Target: Kv1.5 (Homo sapiens, UniProt P22460)
Assay: Kv1.5 inhibition assay (IKur inhibitor assay per cited references)
Type: cell-based
Conditions: for IC50: read-out: Kv1.5 IC50; for inhibition at 0.3 µM / Kv1.5% inhibition: at 0.3 μM
Excerpt: Assays to determine the degree of activity of a compound as an IKur inhibitor are well known in the art and are described in references such as J. Gen. Physiol. Apr.; 101 (4):513-43, and Br. J. Pharmacol. 1995 May; 115(2):267-74.

Chain of Kv1.5 (P22460 whole entry): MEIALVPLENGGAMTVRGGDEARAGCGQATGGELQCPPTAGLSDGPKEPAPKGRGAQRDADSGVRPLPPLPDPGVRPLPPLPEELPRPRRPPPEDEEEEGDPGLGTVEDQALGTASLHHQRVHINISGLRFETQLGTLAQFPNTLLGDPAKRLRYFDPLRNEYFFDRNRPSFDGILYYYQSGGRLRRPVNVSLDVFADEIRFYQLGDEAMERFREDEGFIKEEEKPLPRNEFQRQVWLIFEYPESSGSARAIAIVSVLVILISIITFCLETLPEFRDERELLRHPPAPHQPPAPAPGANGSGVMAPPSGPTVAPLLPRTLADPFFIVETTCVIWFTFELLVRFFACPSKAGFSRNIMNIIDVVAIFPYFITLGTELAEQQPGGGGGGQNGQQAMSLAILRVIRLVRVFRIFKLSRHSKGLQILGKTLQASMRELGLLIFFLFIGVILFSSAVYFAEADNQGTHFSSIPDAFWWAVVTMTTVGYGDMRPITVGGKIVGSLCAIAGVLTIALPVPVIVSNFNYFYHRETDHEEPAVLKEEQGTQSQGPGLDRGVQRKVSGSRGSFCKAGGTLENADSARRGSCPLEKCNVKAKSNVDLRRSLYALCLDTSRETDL

| inhibition at 0.3 µM [%] | Kv1.5% inhibition [%] | SMILES | other results |
| --- | --- | --- | --- |
| 21.3 | – | CC1=C(S(=O)(=O)c2ccc(Cl)cc2)C(C2CCCCC2)n2nc(C(F)(F)F)cc2N1 (single isomer, unassigned) [Example 44 Isomer 2, 6-(4-Chlorophenylsulfonyl)-7-cyclohexyl-5-methyl-2-(trifluoromethyl)-4,7-dihydropyrazolo[1,5-a]pyrimidine] | – |
| – | – | CC1=C(S(=O)(=O)c2ccc(Cl)cc2)C(CC(C)C)n2nc(C(F)(F)F)cc2N1 (single isomer, unassigned) [Example 45 Isomer 1, 6-(4-Chlorophenylsulfonyl)-7-isobutyl-5-methyl-2-(trifluoromethyl)-4,7-dihydropyrazolo[1,5-a]pyrimidine] | IC50: 249 nM |
| 48 | – | CC1=C(S(=O)(=O)c2ccc(Cl)cc2)C(CC(C)C)n2nc(C(F)(F)F)cc2N1 (single isomer, unassigned) [Example 45 Isomer 2, 6-(4-Chlorophenylsulfonyl)-7-isobutyl-5-methyl-2-(trifluoromethyl)-4,7-dihydropyrazolo[1,5-a]pyrimidine] | – |
| 78.1 | – | COc1ccccc1S(=O)(=O)C1=C(C)Nc2cc(C(F)(F)F)nn2C1c1ccc(Cl)cc1 (single isomer, unassigned) [Example 46 Isomer 1, 7-(4-Chlorophenyl)-6-(2-methoxyphenylsulfonyl)-5-methyl-2-(trifluoromethyl)-4,7-dihydropyrazolo[1,5-a]pyrimidine] | – |
| – | 74.7 | COc1ccccc1S(=O)(=O)C1=C(C)Nc2cc(C(F)(F)F)nn2C1c1ccc(Cl)cc1 (single isomer, unassigned) [Example 46 Isomer 2, 7-(4-Chlorophenyl)-6-(2-methoxyphenylsulfonyl)-5-methyl-2-(trifluoromethyl)-4,7-dihydropyrazolo[1,5-a]pyrimidine] | – |
| – | – | CC1=C(S(=O)(=O)c2ccccn2)C(c2ccc(Cl)cc2)n2nc(C(F)(F)F)cc2N1 (single isomer, unassigned) [Example 47 Isomer 1, 7-(4-Chlorophenyl)-5-methyl-6-(pyridin-2-ylsulfonyl)-2-(trifluoromethyl)-4,7-dihydropyrazolo[1,5-a]pyrimidine] | IC50: 197 nM |
| 75.8 | – | CC1=C(S(=O)(=O)c2ccccn2)C(c2ccc(Cl)cc2)n2nc(C(F)(F)F)cc2N1 (single isomer, unassigned) [Example 47 Isomer 2, 7-(4-Chlorophenyl)-5-methyl-6-(pyridin-2-ylsulfonyl)-2-(trifluoromethyl)-4,7-dihydropyrazolo[1,5-a]pyrimidine] | – |
| – | 19.6 | COc1ccc(S(=O)(=O)C2=C(CO)Nc3cc(C(F)(F)F)nn3C2c2ccc(Cl)cc2)cc1 (single isomer, unassigned) [Example 49 Isomer 1, (7-(4-Chlorophenyl)-6-(4-methoxyphenylsulfonyl)-2-(trifluoromethyl)-4,7-dihydropyrazolo[1,5-a]pyrimidin-5-yl)methanol] | – |
| – | 71.2 | COc1ccc(S(=O)(=O)C2=C(CO)Nc3cc(C(F)(F)F)nn3C2c2ccc(Cl)cc2)cc1 (single isomer, unassigned) [Example 49 Isomer 2, (7-(4-Chlorophenyl)-6-(4-methoxyphenylsulfonyl)-2-(trifluoromethyl)-4,7-dihydropyrazolo[1,5-a]pyrimidin-5-yl)methanol] | – |
| 15.1 | – | CC1=C(S(=O)(=O)c2ccc(Cl)cc2)C(c2cncnc2)n2nc(C(F)(F)F)cc2N1 (single isomer, unassigned) [Example 50 Isomer 1, 6-(4-Chlorophenylsulfonyl)-5-methyl-7-(pyrimidin-5-yl)-2-(trifluoromethyl)-4,7-dihydropyrazolo[1,5-a]pyrimidine] | – |
| – | 14.7 | CC1=C(S(=O)(=O)c2ccc(Cl)cc2)C(c2cncnc2)n2nc(C(F)(F)F)cc2N1 (single isomer, unassigned) [Example 50 Isomer 2, 6-(4-Chlorophenylsulfonyl)-5-methyl-7-(pyrimidin-5-yl)-2-(trifluoromethyl)-4,7-dihydropyrazolo[1,5-a]pyrimidine] | – |
| 69.2 | – | COc1ccc(S(=O)(=O)C2=C(C)Nc3cc(C(F)(F)F)nn3C2c2ccc(Cl)cc2)cc1OC (single isomer, unassigned) [Example 51 Isomer 1, 7-(4-Chlorophenyl)-6-(3,4-dimethoxyphenylsulfonyl)-5-methyl-2-(trifluoromethyl)-4,7-dihydropyrazolo[1,5-a]pyrimidine] | – |
| – | 79.2 | COc1ccc(S(=O)(=O)C2=C(C)Nc3cc(C(F)(F)F)nn3C2c2ccc(Cl)cc2)cc1OC (single isomer, unassigned) [Example 51 Isomer 2, 7-(4-Chlorophenyl)-6-(3,4-dimethoxyphenylsulfonyl)-5-methyl-2-(trifluoromethyl)-4,7-dihydropyrazolo[1,5-a]pyrimidine] | – |
| – | 95.7 | CC1=C(S(=O)(=O)N2CCCC2)C(c2ccc(Cl)c(Cl)c2)n2nc(C)cc2N1 (single isomer, unassigned) [Example 53 Isomer 1, 7-(3,4-Dichlorophenyl)-2,5-dimethyl-6-(pyrrolidin-1-ylsulfonyl)-4,7-dihydropyrazolo[1,5-a]pyrimidine] | – |
| – | 54.7 | CC1=C(S(=O)(=O)N2CCCC2)C(c2ccc(Cl)c(Cl)c2)n2nc(C)cc2N1 (single isomer, unassigned) [Example 53 Isomer 2, 7-(3,4-Dichlorophenyl)-2,5-dimethyl-6-(pyrrolidin-1-ylsulfonyl)-4,7-dihydropyrazolo[1,5-a]pyrimidine] | – |
| 22.9 | – | CC1=C(S(=O)(=O)NCc2ccccc2)C(c2ccc(Cl)cc2)n2nc(C)cc2N1 (single isomer, unassigned) [Example 55 Isomer 1, N-Benzyl-7-(4-chlorophenyl)-2,5-dimethyl-4,7-dihydropyrazolo[1,5-a]pyrimidine-6-sulfonamide] | – |
| – | 17.2 | CC1=C(S(=O)(=O)NCc2ccccc2)C(c2ccc(Cl)cc2)n2nc(C)cc2N1 (single isomer, unassigned) [Example 55 Isomer 2, N-Benzyl-7-(4-chlorophenyl)-2,5-dimethyl-4,7-dihydropyrazolo[1,5-a]pyrimidine-6-sulfonamide] | – |
| 50 | – | CC1=C(S(=O)(=O)NCc2ccccc2)C(c2ccc(Cl)c(Cl)c2)n2nc(C(F)(F)F)cc2N1 (single isomer, unassigned) [Example 56 Isomer 1, N-Benzyl-7-(3,4-dichlorophenyl)-5-methyl-2-(trifluoromethyl)-4,7-dihydropyrazolo[1,5-a]pyrimidine-6-sulfonamide] | – |
| – | 37.5 | CC1=C(S(=O)(=O)NCc2ccccc2)C(c2ccc(Cl)c(Cl)c2)n2nc(C(F)(F)F)cc2N1 (single isomer, unassigned) [Example 56 Isomer 2, N-Benzyl-7-(3,4-dichlorophenyl)-5-methyl-2-(trifluoromethyl)-4,7-dihydropyrazolo[1,5-a]pyrimidine-6-sulfonamide] | – |
| 48.6 | – | CC1=C(S(=O)(=O)NC(C)(C)C)C(c2ccc(Cl)cc2)n2nc(C(F)(F)F)cc2N1 (single isomer, unassigned) [Example 57 Isomer 1, N-tert-Butyl-7-(4-chlorophenyl)-5-methyl-2-(trifluoromethyl)-4,7-dihydropyrazolo[1,5-a]pyrimidine-6-sulfonamide] | – |
| – | 36.9 | CC1=C(S(=O)(=O)NC(C)(C)C)C(c2ccc(Cl)cc2)n2nc(C(F)(F)F)cc2N1 (single isomer, unassigned) [Example 57 Isomer 2, N-tert-Butyl-7-(4-chlorophenyl)-5-methyl-2-(trifluoromethyl)-4,7-dihydropyrazolo[1,5-a]pyrimidine-6-sulfonamide] | – |
| 42.9 | – | CC1=C(S(=O)(=O)NC(C)(C)C)C(c2ccc(Cl)c(Cl)c2)n2nc(C(F)(F)F)cc2N1 (single isomer, unassigned) [Example 58 Isomer 1, N-tert-Butyl-7-(3,4-dichlorophenyl)-5-methyl-2-(trifluoromethyl)-4,7-dihydropyrazolo[1,5-a]pyrimidine-6-sulfonamide] | – |
| – | 37.7 | CC1=C(S(=O)(=O)NC(C)(C)C)C(c2ccc(Cl)c(Cl)c2)n2nc(C(F)(F)F)cc2N1 (single isomer, unassigned) [Example 58 Isomer 2, N-tert-Butyl-7-(3,4-dichlorophenyl)-5-methyl-2-(trifluoromethyl)-4,7-dihydropyrazolo[1,5-a]pyrimidine-6-sulfonamide] | – |
| 89.8 | – | CC1=C(S(=O)(=O)N2CCCC2)C(c2ccc(Cl)c(Cl)c2)n2nc(C(F)(F)F)cc2N1 (single isomer, unassigned) [Example 59 Isomer 1, 7-(3,4-Dichlorophenyl)-5-methyl-6-(pyrrolidin-1-ylsulfonyl)-2-(trifluoromethyl)-4,7-dihydropyrazolo[1,5-a]pyrimidine] | – |
| – | 86.4 | CC1=C(S(=O)(=O)N2CCCC2)C(c2ccc(Cl)c(Cl)c2)n2nc(C(F)(F)F)cc2N1 (single isomer, unassigned) [Example 59 Isomer 2, 7-(3,4-Dichlorophenyl)-5-methyl-6-(pyrrolidin-1-ylsulfonyl)-2-(trifluoromethyl)-4,7-dihydropyrazolo[1,5-a]pyrimidine] | – |
| – | 90.5 | CCN(CC)S(=O)(=O)C1=C(C)Nc2cc(C)nn2C1c1ccc(Cl)c(Cl)c1 (single isomer, unassigned) [Example 61 Isomer 1, 7-(3,4-Dichlorophenyl)-N,N-diethyl-2,5-dimethyl-4,7-dihydropyrazolo[1,5-a]pyrimidine-6-sulfonamide] | – |
| – | 42.3 | CCN(CC)S(=O)(=O)C1=C(C)Nc2cc(C)nn2C1c1ccc(Cl)c(Cl)c1 (single isomer, unassigned) [Example 61 Isomer 2, 7-(3,4-Dichlorophenyl)-N,N-diethyl-2,5-dimethyl-4,7-dihydropyrazolo[1,5-a]pyrimidine-6-sulfonamide] | – |

Source: patent US7507730B2, “Substituted pyrazolo[1,5-a]pyrimidines as potassium channel activators” (Bristol-Myers Squibb Company, priority 2005, dated 2009)
